According to patent US20050186290A1, “Use of aquaglyceroporin modulators as slimming agent” (L'OREAL, priority 2003, published 2005):

Tests used:
Type in all cases: cell-based, mice
[1] = system: Aquaporin adipose (AQPap) messenger; experiment: Relative expression of AQPap messenger by RT-Q-PCR in differentiated 3T3-L1 cells; conditions: for RE*AQP7 / AQP7/Actin % Control: 6 h; for RE*AQP7: n=2; for AQP7/Actin % Control: differentiated control = 100; for mRNA stimulation: summary
Protocol: The test was carried out on differentiated 3T3-L1 cells obtained as described in Example 1.
The differentiated cells were placed beforehand in test medium for 24 hours and were then treated with the test products or the references. After incubating for 6 h at 37° C. and 5% CO2, the culture supernatants were removed, the cells were rinsed with a PBS solution and the cell layers were placed in Tri-Reagent (Sigma T9424) and then immediately frozen at −80° C.
The expression of the markers selected was evaluated by RT-Q-PCR with regard to the messenger RNAs extracted from the cells corresponding to each treatment.
The marker β-actin (M12481) was used as reference marker.
The operational stages are as follows: • Extraction of the total RNAs using Tri-Reagent according to the protocol recommended by the supplier. Then further extraction with chloroform and precipitation with isopropanol. • Removal of the traces of potentially contaminating DNA by treatment with the DNA-free system (Ambion). After monitoring the quality of the RNAs obtained, the three samples corresponding to each treatment were pooled. • Carrying out the reverse transcription reaction on the mRNA in the presence of the oligo(dT) primer and of the Superscript II (Gibco) enzyme. • Quantification by fluorescence of the synthesized cDNA and adjustment of the concentrations to 50 ng/μl. Further quantification of each cDNA, after final dilution, is carried out before the PCR reaction.
The PCR (polymerase chain reactions) reactions were carried out by quantitative PCR with the “Light Cycler” system (Roche Molecular Systems Inc.) and according to the procedures recommended by the supplier.
The incorporation of fluorescence into the amplified DNA is carried out continuously during the PCR cycles. This system makes it possible to obtain curves of measurement of the fluorescence as a function of the PCR cycles and to thus evaluate a value of relative expression for each marker.
The number of cycles is determined from the “exit” points of the fluorescence curves. For the same marker analysed, the later the sample exits (high cycle number), the lower the initial number of mRNA copies.
The RE (relative expression) value is expressed in arbitrary units according to the following formula: (1/2^number of cycles)×10^6
Results: Effects of the various treatments on the relative expression of the Aquaporin adipose (AQPap) messenger. Results with respect to the amount of actin messenger (reference gene).
RE=Relative Expression, expressed in arbitrary units (AU), n=2.

[2] = system: differentiated 3T3-L1 cells; experiment: Fluorescence assay of glycerol released, Protocol 1 (without epinephrine); conditions: for Release of glycerol: summary
Protocol: (§1) The effects on the release of glycerol were tested in the presence of all the test products and using a fluorescence assay method. Glycerol was then assayed with regard to certain selected products using a calorimetric method and in the presence or the absence of HgCl2.
(§2) The cells used were mice preadipocytes of the 3T3-L1 line (40 000 cells/well).
(§3) The cells were cultured until confluency in a growth medium, with a change in medium every 2-3 days (24-well plates). • Growth medium: • DMEM (Life Technologies 21969035) L-glutamine, 2 mM (Life Technologies 25030024) • Penicillin 50 IU/ml streptomycin 50 μg/ml (Life Technologies 15070063) • Amphotericin B, 0.25 μg/ml (Sigma A2942) • Foetal calf serum, 10% v/v (Life Technologies 10106151).
(§4) At high confluency, the cells were transferred into a differentiation medium for 2×48 hours. • Differentiation medium: • DMEM (Life Technologies 21969035) • L-glutamine, 2 mM (Life Technologies 25030024) • Penicillin 50 IU/ml streptomycin 50 μg/ml (Life Technologies 15070063) • Foetal calf serum, 10% v/v (Life Technologies 10106151), • Isobutylmethylxanthine, 0.5 mM (IBMX, Sigma 17018) • Insulin, 5 μg/ml (Sigma 11882) • Dexamethasone, 1 μM (Sigma D1756)
After differentiation, the cells were transferred into DMEM medium+insulin (5 μg/ml final) for 72 hours and then into growth medium (DMEM/10% serum).
The differentiated cells were placed in test medium (MEM 100% (v/v), bicarbonate 1.87 mg/ml, glutamine 2 mM, delipidated bovine serum albumin 0.5% (w/v), penicillin/streptomycin 25 IU/ml/25 μg/ml) and were then treated with the test products or the references. After incubating at 37° C. for 1 h and 5% CO2, the culture supernatants were removed in order to assay the glycerol released.
The glycerol released into the culture medium was with a determined content of directly by measuring the fluorescence of the NADH produced in the following reaction sequence (according to Wieland). [drawing 1] Autofluorescence and quenching (absorption of the fluorescence) controls were carried out in order to determine possible interference of the products in this assay.

[3] = system: differentiated 3T3-L1 cells; experiment: Colorimetric assay of glycerol released, Protocol 1; conditions: Protocol 1, 40 μM
Protocol: as §1, §2, §3, §4
After differentiation, the cells were transferred into DMEM medium+insulin (5 μg/ml final) for 72 hours and then into growth medium (DMEM/10% serum). […]

[4] = system: differentiated 3T3-L1 cells; experiment: Fluorescence assay of glycerol released, HgCl2 protocol (Protocol 3); conditions: 10 mM
Protocol: The majority of mammalian aquaporins are inhibited by mercury and its salts, whereas chemical inhibitors of diffusion are unknown (P. Agre et al., J. of Physiology, 2002, 542.1). The cells used were mice preadipocytes of the 3T3-L1 line (40 000 cells/well). The cells were cultured until confluency in a growth medium, with a change in medium every 2-3 days (24-well plates). • Growth medium: • DMEM (Life Technologies 21969035) L-glutamine, 2 mM (Life Technologies 25030024) • Penicillin 50 IU/ml streptomycin 50 μg/ml (Life Technologies 15070063) • Amphotericin B, 0.25 μg/ml (Sigma A2942) • Foetal calf serum, 10% v/v (Life Technologies 10106151). […] After differentiation, the cells were transferred into DMEM medium+insulin (5 μg/ml final) for 72 hours and then into growth medium (DMEM/10% serum). […] The differentiated cells were placed in test medium for 24 h. The cells were subsequently placed in PBS buffer comprising or not comprising HgCl2 (30 μM final) for 5 minutes at 37° C. After treatment with HgCl2, the cells were washed twice in PBS and then placed in test medium comprising or not comprising the test products. The culture supernatants were subsequently removed in order to assay the glycerol released.

[5] = Protocol 1 (Caophenol table), 40 μM

## CCCCCCCCCCC#CCSCC(=O)O [(Tridec-2-ynylthio)acetic acid]
[1]; 0.00032 mg/ml
  RE*AQP7: 0.912 AU
  AQP7/Actin % Control: 130%
[1]; 0.0016 mg/ml
  RE*AQP7: 0.872 AU
  AQP7/Actin % Control: 105%
[1]; 0.008 mg/ml
  RE*AQP7: 0.032 AU
  AQP7/Actin % Control: 174%
[1]; 0.16-4.0 μg/ml
  mRNA stimulation: Yes
[2]; 0.16-4.0 μg/ml
  Release of glycerol: No

## CNC[C@H](O)c1ccc(O)c(O)c1 [Epinephrine]
[2]; [5]
  % Control: 327%
  % theory, taking into account the quenching control: 327%
  Glycerol: 101.85 µM
[2]; Protocol 1, 40 μM, 1 h
  % Control: 352%
  Glycerol: 117.57 µM
[2]; differentiated preadipocytes, epinephrine 40 μM
  Glycerol: 149.5 µM
[2]; differentiated preadipocytes, epinephrine 40 μM, unstimulated differentiated = 100
  Δ%: 383%
[3]
  % Control: 795%
  Glycerol: 449.74 µM

## CCCCCCCCSCC#CCSCC(=O)O [{[4-(Octylthio)but-2-ynyl]thio}acetic acid]
[1]; 0.00016 mg/ml
  RE*AQP7: 0.023 AU
  AQP7/Actin % Control: 128%
[1]; 0.0008 mg/ml
  RE*AQP7: 0.022 AU
  AQP7/Actin % Control: 153%
[1]; 0.004 mg/ml
  RE*AQP7: 0.020 AU
  AQP7/Actin % Control: 167%
[1]; 0.32-8.0 μg/ml
  mRNA stimulation: Yes
[2]; 0.32-8.0 μg/ml
  Release of glycerol: No

## OCCS [β-Mercaptol]
[4]
  % theory, taking into account the quenching control: 155%
  Glycerol: 135.74 µM
[4]; HgCl2 control = 100
  % Control: 155%

## Aescin
[1]; 0.000128 mg/ml
  RE*AQP7: 0.034 AU
  AQP7/Actin % Control: 134%
[1]; 0.00064 mg/ml
  RE*AQP7: 0.039 AU
  AQP7/Actin % Control: 168%
[1]; 0.0032 mg/ml
  RE*AQP7: 0.043 AU
  AQP7/Actin % Control: 164%
[1]; 0.128-3.2 μg/ml
  mRNA stimulation: Yes
